In patent publication US20090035815A1, “Synthetic Gene for Enhanced Expression in E. Coli” (priority 2007, published 2009):

System: PC-12 cells
Test: In-vitro bioassay of recombinant Nesiritide: cGMP induction in PC-12 cells
Type: cell-based, Rat
Settings: 30 mins
From the text: In all five batches of Nesiritide of the present invention, the cGMP induction in PC-12 cells the Nesiritide concentration (nM) is directly proportional to the concentration of Nesiritide used in culture. Culture format: 24-well plate; Cells used: PC-12 cells (Rat adrenal pheochromocytoma); no. of cells plated: 1.0×10^6 cells per well; Parameter measured: cGMP from cell lysate; Method used: Competitive Inhibition Assay (Acetylated format); Kit used: Correlate-EIA cGMP kit Assay Design Inc., USA.
Nesiritide is known to elicit its biological activity via a cGMP second messenger system in vitro and in vivo. PC-12 cells were plated in Plain RPMI medium in 24-well plate and equilibrated at 37° C., 5% CO2 incubator for 2 hrs. Prestimulation medium (RPMI+0.1% BSA+0.1 mM IBMX) was added to cells for 10 mins. It was followed by the addition of different concentrations of Nesiritide for 30 mins at 37° C., 5% CO2 incubator. The cells were lysed with 0.1M HCL for 20 mins followed by 5-7 freeze-thaw cycles. The cell lysates were centrifuged in microfuge at 10000 rpm for 10 mins at 4° C. Protein concentration of the supernatant was estimated by Bradford's method. The supernatant from cell lysates was assayed for cGMP concentration (FIG. 13) using a cGMP kit (Assay Design Inc). The cGMP from cell lysates was estimated from cGMP standard curve. ED50 value was calculated.

| Substance | cGMP levels (Nesiritide Conc 25 nM) [pmol/mL] | cGMP levels (Nesiritide Conc 50 nM) [pmol/mL] | cGMP levels (Nesiritide Conc 75 nM) [pmol/mL] | cGMP levels (Nesiritide Conc 100 nM) [pmol/mL] | cGMP levels (Nesiritide Conc 150 nM) [pmol/mL] | cGMP levels (Nesiritide Conc 200 nM) [pmol/mL] |
| --- | --- | --- | --- | --- | --- | --- |
| USV B. No 5406: batch of recombinant nesiritide of the present invention (Seq. ID NO:2) | 0.133 ± 0.004 | 0.161 ± 0.01 | 0.383 ± 0.02 | 0.444 ± 0.06 | 0.799 ± 0.08 | 1.214 ± 0.06 |
| USV B. No 5606: batch of recombinant nesiritide of the present invention (Seq. ID NO:2) | 0.119 ± 0.01 | 0.150 ± 0.03 | 0.321 | 0.475 ± 0.01 | 0.787 ± 0.07 | 1.006 ± 0.05 |
| USV B. No 5706: batch of recombinant nesiritide of the present invention (Seq. ID NO:2) | 0.114 ± 0.005 | 0.191 ± 0.01 | 0.305 ± 0.05 | 0.478 ± 0.06 | 0.756 ± 0.02 | 1.085 ± 0.06 |
| b-type natriuretic peptide (1-32) [Bachem, reference compound] | 0.121 ± 0.006 | 0.164 ± 0.05 | 0.327 ± 0.05 | 0.502 ± 0.05 | 0.793 ± 0.02 | 1.206 ± 0.08 |
